One data set addresses T1, OTUB2 (OTUB2A) (Homo sapiens, UniProt Q96DC9).
T1 construct: full length residues 1-234, E. coli BL21(DE3)-R3, His tag removed by TEV, construct 27312 Da
T1 sequence (Q96DC9 1-234): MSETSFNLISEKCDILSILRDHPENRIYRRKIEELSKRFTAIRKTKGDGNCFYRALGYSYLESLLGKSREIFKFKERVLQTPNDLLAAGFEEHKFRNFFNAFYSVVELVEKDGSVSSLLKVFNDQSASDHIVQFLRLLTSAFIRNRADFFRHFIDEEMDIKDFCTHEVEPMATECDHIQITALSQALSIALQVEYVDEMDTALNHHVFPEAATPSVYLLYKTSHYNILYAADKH
Also on record: Intact protein LC/MS covalent labelling, fragments in pools of five, 200 uM each, 4 °C. The settings on record: 24 h, 4 °C, pool of five; 200 µM; covalent.

The next data set concerns the target T2, PCAF (Homo sapiens, UniProt Q92831).
T2 construct: gene KAT2B
Further details: Intact protein LC/MS covalent labelling, fragments in pools of five, 200 uM each, 4 °C. As to conditions: 24 h, 4 °C, pool of five; 200 µM; covalent.

In the next data set the target is T3, NUDT7 (Homo sapiens, UniProt P0C024).
T3 construct: residues 14-235, E. coli, pNIC28-Bsa4, N-terminal His6 tag removed by TEV, construct 26672 Da
Also on record: Intact protein LC/MS covalent labelling, fragments in pools of five, 200 uM each, 4 °C. The settings on record: 24 h, 4 °C, pool of five; 200 µM; covalent.

The target in a further data set is T4, BSA (Bos taurus, UniProt P02769).
T4 construct: gene ALB
Further details: Intact protein LC/MS covalent labelling, fragments in pools of five, 200 uM each, 4 °C. As to conditions: 24 h, 4 °C, pool of five; 200 µM; covalent.

Data set [1] is described as follows: in vitro. Also on record: species or system HB2, CCD841. The settings on record: human, hek293 cells.
Data set [2] in a line: in vitro. Also on record: species or system CCD841, HEK293. The settings on record: human, hb2 cells, read-out: HB-2 Cells Viability (%).
Data set [3] is described as follows: in vitro. Also on record: species or system HB2, HEK293. As to conditions: human, ccd841 cells.

The structures appear in SMILES notation. Like-named read-outs stand apart in the source and are kept apart here.

T2 sequence (Q92831 whole entry): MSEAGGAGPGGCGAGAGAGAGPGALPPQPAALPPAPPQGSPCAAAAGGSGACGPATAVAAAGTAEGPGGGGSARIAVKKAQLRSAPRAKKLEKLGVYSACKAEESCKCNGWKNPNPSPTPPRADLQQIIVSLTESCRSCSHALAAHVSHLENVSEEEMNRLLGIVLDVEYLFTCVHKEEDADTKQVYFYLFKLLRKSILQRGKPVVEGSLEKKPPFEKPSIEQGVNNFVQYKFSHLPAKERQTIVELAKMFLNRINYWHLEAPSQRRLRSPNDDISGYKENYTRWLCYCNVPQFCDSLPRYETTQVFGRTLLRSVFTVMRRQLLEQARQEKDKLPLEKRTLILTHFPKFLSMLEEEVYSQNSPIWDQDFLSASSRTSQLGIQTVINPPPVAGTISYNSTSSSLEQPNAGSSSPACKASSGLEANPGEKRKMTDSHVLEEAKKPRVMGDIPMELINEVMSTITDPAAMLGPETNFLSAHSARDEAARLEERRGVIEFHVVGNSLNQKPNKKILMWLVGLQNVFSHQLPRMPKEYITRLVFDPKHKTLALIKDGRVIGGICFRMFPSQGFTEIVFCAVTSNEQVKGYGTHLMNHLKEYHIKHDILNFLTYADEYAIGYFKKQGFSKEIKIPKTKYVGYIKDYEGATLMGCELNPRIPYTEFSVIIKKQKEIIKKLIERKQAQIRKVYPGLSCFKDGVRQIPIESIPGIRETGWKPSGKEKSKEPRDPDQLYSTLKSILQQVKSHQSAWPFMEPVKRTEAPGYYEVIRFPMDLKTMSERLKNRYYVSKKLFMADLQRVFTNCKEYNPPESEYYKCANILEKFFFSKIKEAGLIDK
T4 sequence (P02769 whole entry): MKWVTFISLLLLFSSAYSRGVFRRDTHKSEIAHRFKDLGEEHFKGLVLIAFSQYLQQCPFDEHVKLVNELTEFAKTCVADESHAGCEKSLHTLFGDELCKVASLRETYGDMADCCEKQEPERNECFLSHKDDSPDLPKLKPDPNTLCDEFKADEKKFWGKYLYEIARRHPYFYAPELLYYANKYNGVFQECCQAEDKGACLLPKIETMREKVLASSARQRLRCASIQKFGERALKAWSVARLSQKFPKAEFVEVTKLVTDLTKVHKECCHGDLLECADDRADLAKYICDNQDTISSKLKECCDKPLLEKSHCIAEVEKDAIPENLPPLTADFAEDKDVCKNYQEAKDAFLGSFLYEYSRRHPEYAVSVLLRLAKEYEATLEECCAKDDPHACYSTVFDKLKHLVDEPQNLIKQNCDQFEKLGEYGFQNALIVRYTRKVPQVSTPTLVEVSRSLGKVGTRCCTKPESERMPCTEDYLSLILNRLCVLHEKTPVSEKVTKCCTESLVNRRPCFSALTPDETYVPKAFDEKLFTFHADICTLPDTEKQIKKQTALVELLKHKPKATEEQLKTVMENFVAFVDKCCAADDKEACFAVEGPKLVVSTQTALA
T3 sequence (P0C024 14-235): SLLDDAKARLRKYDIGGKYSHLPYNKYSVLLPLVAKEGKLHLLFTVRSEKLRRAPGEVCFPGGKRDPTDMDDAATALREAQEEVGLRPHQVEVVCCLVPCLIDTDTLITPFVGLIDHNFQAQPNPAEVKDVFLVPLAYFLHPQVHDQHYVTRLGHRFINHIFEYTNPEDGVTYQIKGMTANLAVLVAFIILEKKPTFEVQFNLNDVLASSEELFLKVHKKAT

The term viability denotes a read-out of living cells in per cent, often relative to untreated cells. With `COc1ccccc1NC(=O)CCl` [PCM-0102236], at OTUB2 (OTUB2A), the OTUB2 amounted to 0.28. For the same compound, on PCAF, the PCAF is 0. Also, the NUDT7 on NUDT7 is recorded as 0. Also, at BSA, the BSA was determined as 0. Further, the figures for the viability at 48 h, 10 µM in the data set “in vitro [1]”, in “in vitro [2]” and in “in vitro [3]” were 58.4%, 71% and 79%, respectively.
The compound `CC(C)(C)c1ccc(NC(=O)CCl)cc1` [PCM-0102622] showed an OTUB2 at OTUB2 (OTUB2A) of 0.32. On PCAF, the PCAF is reported as 0. For the same compound, the NUDT7 on NUDT7 turned out to be 0. Moreover, the BSA on BSA came out at 0. The viability at 48 h, 10 µM is 10.3% in the data set “in vitro [1]”, 12.6% in “in vitro [2]” and 38.7% in “in vitro [3]”.
`Cl.O=C(CCl)N1CCN(CC(=O)N2CCCC2)CC1` [PCM-0102346]: the OTUB2 at OTUB2 (OTUB2A) amounted to 0. On PCAF, this compound gave a PCAF of 0. The NUDT7 on NUDT7 was 0. On BSA, this compound displayed a BSA of 0. The viability at 48 h, 10 µM in the data set “in vitro [1]” stood at 99%; in “in vitro [2]” it was 98.1%; in the data set “in vitro [3]”, 80.8%.
With `O=C(CCl)Nc1ccc(Cl)cc1` [PCM-0102120], the OTUB2 on OTUB2 (OTUB2A) was 0.23. Also, the PCAF at PCAF is listed as 0. The NUDT7 on NUDT7 amounted to 0.18. The compound also yielded a BSA at BSA of 0. For the same compound, the viability at 48 h, 10 µM in “in vitro [1]” came out at 2.7%; in the data set “in vitro [2]” it was 16.7%; in the data set “in vitro [3]”, 55.2%.
`CN(CC1COc2ccccc2O1)C(=O)CCl` (centres unmarked) [PCM-0102756] gave an OTUB2 at OTUB2 (OTUB2A) of 0.06. Also, the PCAF at PCAF came to 0. The compound also had an NUDT7 on NUDT7 of 0.16. Further, the BSA at BSA is 0. The values for the viability at 48 h, 10 µM in “in vitro [1]”, in “in vitro [2]” and in “in vitro [3]” were 21.7%, 13.3% and 52.5%, respectively.
Consider `CN(Cc1ccsc1)C(=O)CCl` [PCM-0102865], for which the OTUB2 on OTUB2 (OTUB2A) was 0. Moreover, the PCAF at PCAF worked out at 0. For the same compound, on NUDT7, the NUDT7 came to 0.09. Moreover, on BSA, the BSA is 0. The viability at 48 h, 10 µM came to 34% in “in vitro [1]”, 49.6% in the data set “in vitro [2]” and 76.1% in “in vitro [3]”.
Take `C=CC(=O)NC1CCc2nc(-c3cc(F)ccc3F)cn2C1` (centres unmarked) [PCM-0102566]: the OTUB2 at OTUB2 (OTUB2A) came to 0. At PCAF, this compound had a PCAF of 0. Moreover, on NUDT7, the NUDT7 was 0. Further, the BSA at BSA is 0. In addition, the viability at 48 h, 10 µM in the data set “in vitro [1]” came out at 78%; in the data set “in vitro [2]” it was 97.4%; in the data set “in vitro [3]”, 106%.
`CC(c1cc2ccccc2o1)N(C)C(=O)CCl` (centres unmarked) [PCM-0102971] yielded an OTUB2 on OTUB2 (OTUB2A) of 0. The PCAF on PCAF was 0. Besides, the NUDT7 at NUDT7 came out at 0.66. The same compound registered a BSA on BSA of 0. The figures for the viability at 48 h, 10 µM in “in vitro [1]”, in the data set “in vitro [2]” and in the data set “in vitro [3]” were 10.1%, 13.3% and 34.1%, respectively.
On to `CC1CCCCC1NC(=O)NC(=O)CCl` (centres unmarked) [PCM-0102292], for which, on OTUB2 (OTUB2A), the OTUB2 was found to be 0.24. At PCAF, the PCAF is 0. Besides, on NUDT7, the NUDT7 is 0. The same compound displayed a BSA on BSA of 0. The figures for the viability at 48 h, 10 µM in “in vitro [1]”, in “in vitro [2]” and in “in vitro [3]” were 48.6%, 52.8% and 69%, respectively.
In the case of `CN(C(=O)CCl)C1CCCc2ccccc21` (centres unmarked) [PCM-0102703], on OTUB2 (OTUB2A), the OTUB2 was 0. The compound further displayed a PCAF on PCAF of 0. Further, the NUDT7 on NUDT7 worked out at 0.3. The compound further returned a BSA on BSA of 0. The viability at 48 h, 10 µM in “in vitro [1]” worked out at 5.8%; in the data set “in vitro [2]” it was 6.6%; in “in vitro [3]”, 25.8%.
At OTUB2 (OTUB2A), `O=C(CCl)N1CCN(S(=O)(=O)c2ccc(Cl)cc2)CC1` [PCM-0102704] had an OTUB2 of 0. The PCAF on PCAF stood at 0. On NUDT7, this compound displayed an NUDT7 of 0.25. The compound also registered a BSA at BSA of 0. In addition, the viability at 48 h, 10 µM worked out at 2.7% in the data set “in vitro [1]”, 2.5% in “in vitro [2]” and 18.8% in “in vitro [3]”.

The record behind these values is paper PMC6556873, “Rapid Covalent-Probe Discovery by Electrophile-Fragment Screening” (Journal of the American Chemical Society, 2019).
